Experimental data reported in patent publication EP4813463A2, “TYK2 INHIBITORS AND COMPOSITIONS AND METHODS THEREOF” (Lynk Pharmaceuticals Co. Ltd., priority 2023, dated 2024).
Converted amounts (≈) assume the structure as drawn. Read-outs that look alike come from different tables or passages of the source.

What was measured:
[1] = biological target: T1, TYK2-JH2 domain (Homo sapiens, UniProt P29597); assay: Binding activity test for JH2 domain of TYK2 (Tb-antibody/tracer FRET); conditions: for IC50: JH2 domain enzyme, 60 min at 25°C, then 4°C overnight, read-out: TYK2 JH2 Binding IC50; for JAK1/TYK2 selectivity: ratio of JAK1 JH2 to TYK2 JH2 binding IC50
T1 construct: JAK1-JH2 domain or TYK2-JH2 domain enzyme in assay buffer
T1 sequence (P29597 589-875 limits assumed): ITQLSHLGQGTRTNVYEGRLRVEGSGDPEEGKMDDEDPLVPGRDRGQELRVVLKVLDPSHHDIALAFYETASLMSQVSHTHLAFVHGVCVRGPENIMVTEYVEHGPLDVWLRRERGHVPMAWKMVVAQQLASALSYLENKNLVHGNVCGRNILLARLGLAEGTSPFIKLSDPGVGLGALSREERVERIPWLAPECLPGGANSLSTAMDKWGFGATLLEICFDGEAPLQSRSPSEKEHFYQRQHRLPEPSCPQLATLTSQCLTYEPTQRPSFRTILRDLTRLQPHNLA
Method in brief: (§1)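 IC50 values (nM) come from TR-FRET readings taken after a 25°C incubation followed by overnight at 4°C. Each well held JH2 domain protein, Tb-antibody, tracer and test compound titrated in 11 threefold steps, with DMSO high and low controls.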

[2] = test system: IFNa pSTAT1; assay: Phosphorylation of STAT1 inhibition in HMC3 cells with HTRF assay; assay type: cell-based; conditions: Homo sapiens, HMC3 microglia cells, 50ng/mL hINFα 1 hour, read-out: HTRF_HMC3 IC 50 (IFNa pSTAT1)
Experimental: Seeding HMC3 cells into 96-well plate and incubate overnight. Pre-stimulation with recombinant human IFNα (Sino biological, H08Y), treat cells with compound with different concentration for 1hr. After compound treatment, stimulate cells with 50ng/mL hINFα for another 1 hour (for CCF-STTG1 cells IFNα induction time is 30 mins). After compound treatment and cytokine stimulation, dump old medium and lyse cells with supplemented lysis buffer provided by the HTRF kit (Revvity, 63ADK026PEG) for 30 min at room temperature under shaking. After homogenization by pipetting up and down, transfer 16 µL of cell lysate from the 96-well cell-culture plate to a small volume white 384-well plate, and then add 4 µL of pre-mixed two ready-to-use antibody working solution into each wells. Cover the plate with a plate sealer and incubate it overnight at room temperature. Read the fluorescence emission at two different wavelengths (665nm and 620nm) on microplate reader (Molecular Device, SpectraMax i3X). Collect data and analyzed with GraphPad Prism.

[3] = test system: Ba/F3-FL-TYK2-P760L cells; assay: Anti-proliferative assay in engineered Ba/F3 cells (Cell-Titer Glo, 72 h); assay type: cell-based; conditions: 72 h compound treatment, concentration that causes 50% growth inhibition, read-out: Baf3-FL-T2P760L
Method in brief: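 IC50 from luminescent ATP viability after 72 h compound exposure (37 °C, 5% CO2), % inhibition normalised to DMSO-treated cells minus medium blank. IL-3-free Ba/F3-FL-TYK2-P760L (Tel-JAK fusion) cells in 10% FBS RPMI-1640 received 9 three-fold doses, top 20 µM, 0.1% DMSO.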

[4] = test system: pSTAT1; assay: Phosphorylation inhibition of STAT in human whole blood (IFN-alpha stimulated, flow cytometry); assay type: cell-based; conditions: T-cell, 20 min, IFN-alpha stimulation 20 mins, CD3 T cells, read-out: pSTAT1 inhibition in hWB (IC50)
Method in brief: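 Fresh human whole blood stimulated 20 min with human universal type I IFN-alpha, then fixed, permeabilised and stained for CD3 and pSTAT1 (Y701). pSTAT1 in T cells read by flow cytometry; IC50 from 4-parameter logistic fit.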

[5] = biological target: T2, JAK1-JH2 domain (Homo sapiens, UniProt P23458); assay: Binding activity test for JH2 domain of JAK1 (Tb-antibody/tracer FRET); conditions: JH2 domain enzyme; 60 min at 25°C, then 4°C overnight; read-out: JAK1 JH2 Binding IC50
T2 construct: JAK1-JH2 domain or TYK2-JH2 domain enzyme in assay buffer
T2 sequence (P23458 583-855 limits assumed): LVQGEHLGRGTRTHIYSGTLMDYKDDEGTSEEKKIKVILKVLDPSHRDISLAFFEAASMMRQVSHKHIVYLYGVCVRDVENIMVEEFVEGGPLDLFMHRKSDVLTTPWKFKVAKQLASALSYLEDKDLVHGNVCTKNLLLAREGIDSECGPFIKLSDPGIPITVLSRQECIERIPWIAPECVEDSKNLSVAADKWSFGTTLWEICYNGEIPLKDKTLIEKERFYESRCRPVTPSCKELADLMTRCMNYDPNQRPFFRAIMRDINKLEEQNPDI
Method in brief: as §1

[6] = Kinetic solubility; assay type: physicochemical; conditions: phosphate buffer, pH 7.4, aqueous buffer, kinetic from dmso stock, 100 mM pH 7.4 phosphate buffer, 1% DMSO, room temperature, read-out: Kinetics Solubility_PBS7.4
Method in brief: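 Compounds diluted from 10 mM/5 mM DMSO stocks into 100 mM phosphate buffer pH 7.4 (1% DMSO final), shaken 2 h at room temperature, then centrifuged. Dissolved compound in supernatant quantified by LC-MS/MS against a standard curve.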

[7] = test system: TYK2 pathway; assay: IFN-γ release in NK92 cells stimulated by IL-12 (ELISA); assay type: cell-based; conditions: IL-12 2.5ng/mL stimulation 15hrs, IFN-γ in supernatant by ELISA
Experimental: IFN-γ Release in NK92 Cells Stimulated by IL-12
Purpose: To evaluate the inhibition activity of TYK2 inhibitors in NK92 cells on TYK2 pathway through ELISA method.
Procedure: 1) Seeding NK92 cells into 96-well plate, cell density is 1.5E5 cells/well, 100uL/well; 2)Add prepared test articles into indicated wells, 50uL/well, and continue incubate for 1h, at 37°C; 3) After compound treatment, add 50uL/well IL-12 into indicated wells, final concentration of IL-12 is 2.5ng/mL; 4)Incubate cytokine stimulated cells at 37°C for another 15hrs in CO2 incubator; 5) After cytokine stimulation, transfer culture supernatant into a new plate and centrifuge for 5min at 350x g, and detect IFN-γ concentration in the supernatant with ELISA kit; 6) Data analysis with GrapdPad Prism6.0 software. Table 5. IC50 Values of Exemplary Compounds on TYK2 Pathway

[8] = Microsomal metabolic stability assay; assay type: in vitro ADME; conditions: human, liver microsomes, pH 7.4, 0.5 mg/mL microsomal protein, 1 µM test article, 2 mM NADPH
Method in brief: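 Test or control compound (1 µM) incubated with microsomes (0.5 mg/mL protein) in 100 mM potassium phosphate pH 7.4, 1.0 mM EDTA at 37°C, started with NADPH regenerating system (2 mM NADPH). Sampled at 0, 5, 15, 30, 45 min, acetonitrile-quenched, LC/MS/MS. T1/2 from ln %remaining vs time slope; CLint = 0.693/T1/2 per mg protein/mL.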

[9] = Brain pharmacokinetic studies in rats; assay type: in vivo, Sprague-Dawley rats
Experimental: Pharmacokinetic profiles of test articles were evaluated in fasted Sprague-Dawley rats. Different kinds of formulations were designed to ensure test articles fully dissolved and wouldn't precipitate in 1:10 SGF or FaSSIF dilution. Typically, Rats were dosed with 3 mg/kg and 5 mg/kg by intravenous injection and oral gavage, respectively. The animal was restrained manually at the designated time points, approximately 150 µL of blood sample was collected via jugular vein for serial bleeding into K2EDTA tubes. The blood samples were maintained in wet ice first and centrifuged to obtain plasma (2000g, 4°C, 5 min) within 30 minutes post sampling. Anesthetizing the rat with the Isoflurane vaporizer to 2%~3% and place its back on the operation table. Spread the animal limbs and pin the limbs on the operation table. Make a cut along the sternum about 4cm long, low enough to expose the sternum's end. Expose the heart and use a 25-gauge needle connected with a 20 mL syringe filled with 20 mL of cold saline to pierce the left ventricle. Maintain the placement of the needle, and slowly push the syringe plunger to wash the brain with saline. The perfusion will be finished within about 2 min and then take the brain out of the body carefully without damaging the tissue. Dry the tissue on filtrate paper, which should be placed on ice, and then weigh the brain tissue and store at -70 °C and analyzed by LC/MS/MS for quantification. PK parameter values, including, but not necessarily limited to, the maximum plasma concentrations (Cmax), and the area under the plasma concentration vs. time curve (AUC) from time zero to 24-hour (AUC0-24h) were determined using WinNonlin program. Table 13. Systemic Pharmacokinetic Parameters in Sprague-Dawley Rats

With `COCC(OC)c1ccc2c(c(Nc3cc(NC(=O)C4CC4)ncc3C(=O)OC)nn2C)c1OC` (stereo not drawn) [Example 159, Methyl 6-(cyclopropanecarbonylamino)-4-[[5-(1,2-dimethoxyethyl)-4-methoxy-1-methyl-indazol-3-yl]amino]pyridine-3-carboxylate] the IC50 [1] was 0.203 nM, the JAK1/TYK2 selectivity [1] was 40.45 and the IC50 [2] was 0.082 nM. It also gave an IC50 ([3]; Mus musculus, BaF3, 72 h) of 6.29 nM, an IC50 [4] of 129 nM and an IC50 [5] of 8.21 nM.

Work on `[2H]C([2H])([2H])NC(=O)c1cnc(NC(=O)C2CC2)cc1Nc1cnn2ccc([C@H](OC(C)=O)C(F)(F)F)c(OC)c12` [Example 43, (S)-1-(3-((2-(cyclopropanecarboxamido)-5-((methyl-d3)carbamoyl)pyridin-4-yl)amino)-4-methoxypyrazolo[1,5-a]pyridin-5-yl)-2,2,2-trifluoroethyl acetate] yielded an IC50 [1] of 0.175 nM, a JAK1/TYK2 selectivity [1] of 407.2 and a solubility kinetic at 2 h [6] of 33.3 µM. It also gave an IC50 ([3]; Mus musculus, BaF3, 72 h) of 20.6 nM, an IC50 [4] of 174 nM and an IC50 [7] of 22.6 nM. The IC50 [5] was 71.3 nM.

Work on `[2H]C([2H])([2H])NC(=O)c1cnc(NC(=O)[C@@H]2C[C@@H]2F)cc1Nc1cnn2ccc(C(O)C(F)(F)F)c(OC)c12` (single isomer, unassigned) [Example 15A, 6-((1S,2S)-2-fluorocyclopropane-1-carboxamido)-4-((4-methoxy-5-((S*)-2,2,2-trifluoro-1-hydroxyethyl)pyrazolo[1,5-a]pyridin-3-yl)amino)-N-(methyl-d3)nicotinamide] yielded an IC50 [1] of 0.078 nM, a JAK1/TYK2 selectivity [1] of 160.8 and a solubility kinetic at 2 h [6] of 23.9 µM (≈ 11.9 µg/mL). The IC50 [3] was 10.6 nM, the IC50 [4] was 34.8 nM and the IC50 [7] was 15.7 nM. The microsomal CLint at 1 µM ([8]; read-out: Human LM Clint) was 11.9 µL/min/mg, the half-life at 1 µM ([8]; read-out: Human LM T1/2) was 1.94 h and the IC50 [5] was 12.5 nM.

With `CCC(=O)c1cnc(NC(=O)C2CC2)cc1Nc1ccc2cn[nH]c2c1OC` [Example 196, N-(4-((7-Methoxy-1H-indazol-6-yl)amino)-5-propionylpyridin-2-yl)cyclopropanecarboxamide, reference compound] the IC50 [1] was 3.93 nM, the JAK1/TYK2 selectivity [1] was 8.04 and the IC50 [4] was over 10000 nM. It also gave an IC50 [7] of 923 nM and an IC50 [5] of 31.6 nM.

In the case of `CCn1nc(Nc2cc(NC(=O)C3CC3)ncc2C(=O)OC)c2c(OC)c(C(O)C(F)(F)F)ccc21` (single isomer, unassigned) [Example 70A, Methyl (S*)-6-(cyclopropanecarboxamido)-4-((1-ethyl-4-methoxy-5-(2,2,2-trifluoro-1-hydroxyethyl)-1H-indazol-3-yl)amino)nicotinate], the IC50 [1] is reported as 0.15 nM, the JAK1/TYK2 selectivity [1] is reported as 145.12 and the IC50 [2] is reported as under 0.061 nM. It also gave an IC50 ([3]; Mus musculus, BaF3, 72 h) of 2.35 nM, an IC50 [4] of 43.7 nM and an IC50 [5] of 21.8 nM.

Compound `CCC(=O)c1cnc(NC(=O)C2CC2)cc1Nc1ccc2[nH]cnc2c1OC` [Example 197, N-[4-[(4-Methoxy-1H-benzimidazol-5-yl)amino]-5-propanoyl-2-pyridyl] cyclopropanecarboxamide, reference compound] has an IC50 [1] of 2.72 nM, a JAK1/TYK2 selectivity [1] of 6.41 and an IC50 ([3]; Mus musculus, BaF3, 72 h) of 426 nM. The IC50 [7] was 515 nM and the IC50 [5] was 17.4 nM.

For `CNC(=O)c1cnc(NC(=O)C2CC2)cc1Nc1nn(C)c2cccc(OC)c12` [Example 100, 6-(Cyclopropanecarboxamido)-4-((4-methoxy-1-methyl-1H-indazol-3-yl)amino)-N-methylnicotinamide], the IC50 [1] was 0.97 nM, the JAK1/TYK2 selectivity [1] was 116.4 and the IC50 ([3]; Mus musculus, BaF3, 72 h) was 505 nM. The IC50 [7] was 86.8 nM and the IC50 [5] was 113 nM.

`CCC(=O)c1cnc(NC(=O)C2CC2)cc1Nc1ccn2nccc2c1OC` [Example 195, N-[4-[(4-Methoxypyrazolo[1,5-a]pyridin-5-yl)amino]-5-propanoyl-2-pyridyl]cyclopropanecarboxamide, reference compound] showed an IC50 [1] of 2.96 nM, a JAK1/TYK2 selectivity [1] of 22.68 and an IC50 ([3]; Mus musculus, BaF3, 72 h) of 329 nM. It also gave an IC50 [4] of over 5000 nM, an IC50 [7] of 1500 nM and an IC50 [5] of 67.1 nM.

Work on `COC(=O)c1cnc(NC(=O)C2CC2)cc1Nc1cnn2ccc([C@H](O)C(F)(F)F)c(OC)c12` [Example 26, Methyl (5)-6-(cyclopropanecarboxamido)-4-((4-methoxy-5-(2,2,2-trifluoro-1-hydroxyethyl)pyrazolo[1,5-a]pyridin-3-yl)amino)nicotinate] yielded an IC50 [1] of 0.183 nM, a JAK1/TYK2 selectivity [1] of 338.1 and a half-life ([9]; Sprague-Dawley, rat, brain, rats, iv, 3 mg/kg, solution) of 1.99 h. It also gave a Kp ([9]; Sprague-Dawley, rat, brain, rats, iv, 3 mg/kg, solution, read-out: Brain AUC/Systemic AUC) of 0.11, a half-life ([9]; Sprague-Dawley, rat, systemic (plasma), rats, iv, 3 mg/kg, solution) of 1.53 h and an AUC ([9]; Sprague-Dawley, rat, systemic (plasma), rats, iv, 3 mg/kg, solution, read-out: AUC) of 1290 ng·h/mL. The “AUC” value ([9]; brain, rats, iv, 3 mg/kg, solution) was 140 ng·h/g, the “brain exposure in Rats” value ([9]; result in words) was “good brain exposure” and the IC50 ([3]; Mus musculus, BaF3, 72 h) was 35.2 nM. The IC50 [7] was 17.6 nM and the IC50 [5] was 61.9 nM.
